# Results published in the kinase profiling compilation of Christmann-Franck et al. (2016).
# Columns and labels:
# Experiment in all cases: KINOMEscan competition binding
# Conditions in all cases: compound 10.0 µM
# SRC (human) = SRC (human) (UniProt P12931)
# ERBB4 (human) = ERBB4 (human) (UniProt Q15303)
# BLK (human) = BLK (human) (UniProt P51451)
# ALK (human) = ALK (human) (UniProt Q9UM73)
# STK38L (human) = STK38L (human) (UniProt Q9Y2H1)
# CSF1R (human) = CSF1R (human) (UniProt P07333)
# [1] = test system: ABL1 (human), P00519 [M351T]
# CDK14 (human) = CDK14 (human) (UniProt O94921)
# [2] = test system: KIT (human), P10721 [V559D/T670I]
# [3] = test system: FLT3 (human), P36888 [K663Q]
# CDK8 (human) = CDK8 (human) (UniProt P49336)
# TNK1 (human) = TNK1 (human) (UniProt Q13470)
# FLT4 (human) = FLT4 (human) (UniProt P35916)
# [4] = test system: FLT3 (human), P36888 [ITD]
# [5] = test system: FLT3 (human), P36888 [D835H]
# TIE1 (human) = TIE1 (human) (UniProt P35590)
# [6] = test system: FGFR3 (human), P22607 [G697C]
# FLT1 (human) = FLT1 (human) (UniProt P17948)
# PRKACB (human) = PRKACB (human) (UniProt P22694)
# MAPK12 (human) = MAPK12 (human) (UniProt P53778)
# [7] = test system: ABL1 (human), P00519 [F317L]
# MYLK2 (human) = MYLK2 (human) (UniProt Q9H1R3)
# [8] = target: TYK2 JH1 catalytic (human) (UniProt P29597)
# LYN (human) = LYN (human) (UniProt P07948)
# [9] = target: JAK3 JH1 catalytic (human) (UniProt P52333)
# CDK5 (human) = CDK5 (human) (UniProt Q00535)
# ANKK1 (human) = ANKK1 (human) (UniProt Q8NFD2)
# EGFR (human) = EGFR (human) (UniProt P00533)
# CDC2L2 (human) = CDC2L2 (human) (UniProt Q9UQ88)
# MYO3B (human) = MYO3B (human) (UniProt Q8WXR4)
# ANKK1 (human), sequence (Q8NFD2 whole entry, looked up): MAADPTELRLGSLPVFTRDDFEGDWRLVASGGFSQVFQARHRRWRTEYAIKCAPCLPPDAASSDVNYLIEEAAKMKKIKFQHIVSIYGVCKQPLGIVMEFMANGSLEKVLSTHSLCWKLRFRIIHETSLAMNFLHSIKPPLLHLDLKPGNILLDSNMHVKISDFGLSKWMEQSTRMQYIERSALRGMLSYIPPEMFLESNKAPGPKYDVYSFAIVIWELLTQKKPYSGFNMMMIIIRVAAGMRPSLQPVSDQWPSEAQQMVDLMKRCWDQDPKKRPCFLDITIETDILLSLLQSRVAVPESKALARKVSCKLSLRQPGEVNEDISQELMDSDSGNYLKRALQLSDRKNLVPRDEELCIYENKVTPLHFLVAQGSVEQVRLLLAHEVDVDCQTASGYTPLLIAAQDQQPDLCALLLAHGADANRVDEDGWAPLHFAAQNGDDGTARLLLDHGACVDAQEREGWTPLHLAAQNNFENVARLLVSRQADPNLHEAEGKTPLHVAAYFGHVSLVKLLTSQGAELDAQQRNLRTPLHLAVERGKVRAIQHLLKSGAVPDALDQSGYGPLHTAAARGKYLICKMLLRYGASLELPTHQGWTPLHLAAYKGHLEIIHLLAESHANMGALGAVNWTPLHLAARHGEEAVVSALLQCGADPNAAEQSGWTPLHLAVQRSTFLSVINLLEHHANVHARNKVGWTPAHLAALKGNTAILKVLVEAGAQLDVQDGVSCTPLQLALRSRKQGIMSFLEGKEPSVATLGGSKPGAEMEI
# TIE1 (human), sequence (P35590 whole entry, looked up): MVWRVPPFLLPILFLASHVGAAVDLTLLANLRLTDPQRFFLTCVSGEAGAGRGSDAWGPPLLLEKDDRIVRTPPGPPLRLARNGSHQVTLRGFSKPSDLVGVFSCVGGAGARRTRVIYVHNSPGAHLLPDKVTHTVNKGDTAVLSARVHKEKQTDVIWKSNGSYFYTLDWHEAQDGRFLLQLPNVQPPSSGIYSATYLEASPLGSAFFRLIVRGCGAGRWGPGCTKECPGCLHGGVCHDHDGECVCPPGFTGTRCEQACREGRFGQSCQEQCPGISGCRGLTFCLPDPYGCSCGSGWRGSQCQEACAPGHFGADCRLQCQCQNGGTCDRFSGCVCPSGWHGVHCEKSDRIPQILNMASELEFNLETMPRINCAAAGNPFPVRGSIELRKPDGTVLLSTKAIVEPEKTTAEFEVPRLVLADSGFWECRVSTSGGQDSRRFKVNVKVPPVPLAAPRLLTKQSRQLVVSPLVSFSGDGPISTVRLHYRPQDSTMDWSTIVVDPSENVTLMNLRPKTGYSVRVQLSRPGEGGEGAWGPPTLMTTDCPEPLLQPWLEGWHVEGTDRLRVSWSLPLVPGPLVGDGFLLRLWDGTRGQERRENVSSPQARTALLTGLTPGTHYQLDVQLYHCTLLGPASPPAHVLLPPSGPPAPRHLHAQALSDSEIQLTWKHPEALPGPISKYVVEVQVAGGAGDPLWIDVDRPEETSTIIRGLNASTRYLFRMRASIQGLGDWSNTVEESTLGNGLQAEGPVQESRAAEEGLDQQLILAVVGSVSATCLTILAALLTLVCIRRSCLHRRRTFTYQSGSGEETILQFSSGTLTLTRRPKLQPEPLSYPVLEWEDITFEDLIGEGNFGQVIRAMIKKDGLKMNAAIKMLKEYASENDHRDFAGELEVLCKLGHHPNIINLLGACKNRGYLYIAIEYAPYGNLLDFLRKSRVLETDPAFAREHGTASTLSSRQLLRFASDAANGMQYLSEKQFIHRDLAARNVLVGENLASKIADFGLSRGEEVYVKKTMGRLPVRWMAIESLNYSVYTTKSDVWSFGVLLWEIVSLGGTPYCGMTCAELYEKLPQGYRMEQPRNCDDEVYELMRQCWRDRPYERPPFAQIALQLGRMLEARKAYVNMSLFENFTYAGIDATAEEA
# FLT1 (human), sequence (P17948 whole entry, looked up): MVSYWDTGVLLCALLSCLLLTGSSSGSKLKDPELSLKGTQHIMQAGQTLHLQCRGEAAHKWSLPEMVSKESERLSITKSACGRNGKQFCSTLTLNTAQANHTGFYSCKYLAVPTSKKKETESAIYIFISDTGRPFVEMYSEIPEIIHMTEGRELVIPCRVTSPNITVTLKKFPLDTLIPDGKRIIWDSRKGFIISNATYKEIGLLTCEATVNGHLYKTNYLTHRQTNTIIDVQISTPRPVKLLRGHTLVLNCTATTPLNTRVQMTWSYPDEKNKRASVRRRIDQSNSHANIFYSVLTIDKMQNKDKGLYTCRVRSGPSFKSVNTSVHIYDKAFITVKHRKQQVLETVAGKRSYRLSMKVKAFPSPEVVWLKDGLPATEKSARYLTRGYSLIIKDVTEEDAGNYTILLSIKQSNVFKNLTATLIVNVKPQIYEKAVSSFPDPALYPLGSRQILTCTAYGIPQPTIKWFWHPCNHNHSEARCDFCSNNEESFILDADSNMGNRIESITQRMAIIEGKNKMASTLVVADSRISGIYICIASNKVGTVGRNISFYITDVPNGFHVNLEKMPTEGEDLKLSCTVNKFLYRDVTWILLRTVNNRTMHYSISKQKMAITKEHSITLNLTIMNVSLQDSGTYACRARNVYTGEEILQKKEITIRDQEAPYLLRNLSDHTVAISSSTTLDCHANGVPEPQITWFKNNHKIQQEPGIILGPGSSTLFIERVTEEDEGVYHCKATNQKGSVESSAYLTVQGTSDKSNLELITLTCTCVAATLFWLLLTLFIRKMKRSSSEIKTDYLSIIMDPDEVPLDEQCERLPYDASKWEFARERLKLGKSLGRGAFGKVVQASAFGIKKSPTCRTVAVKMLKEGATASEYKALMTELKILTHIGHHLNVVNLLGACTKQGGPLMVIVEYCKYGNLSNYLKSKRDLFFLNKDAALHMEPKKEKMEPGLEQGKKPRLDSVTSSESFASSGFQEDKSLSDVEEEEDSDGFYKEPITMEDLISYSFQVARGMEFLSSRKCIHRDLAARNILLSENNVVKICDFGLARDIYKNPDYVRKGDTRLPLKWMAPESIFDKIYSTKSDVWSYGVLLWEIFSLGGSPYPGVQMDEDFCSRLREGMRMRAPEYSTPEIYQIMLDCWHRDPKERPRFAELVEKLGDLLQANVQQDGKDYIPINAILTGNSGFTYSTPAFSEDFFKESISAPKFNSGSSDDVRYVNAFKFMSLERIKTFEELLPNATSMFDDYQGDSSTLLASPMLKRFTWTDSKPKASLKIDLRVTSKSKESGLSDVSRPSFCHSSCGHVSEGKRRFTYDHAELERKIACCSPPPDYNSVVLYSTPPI
# CDC2L2 (human), sequence (Q9UQ88 whole entry, looked up): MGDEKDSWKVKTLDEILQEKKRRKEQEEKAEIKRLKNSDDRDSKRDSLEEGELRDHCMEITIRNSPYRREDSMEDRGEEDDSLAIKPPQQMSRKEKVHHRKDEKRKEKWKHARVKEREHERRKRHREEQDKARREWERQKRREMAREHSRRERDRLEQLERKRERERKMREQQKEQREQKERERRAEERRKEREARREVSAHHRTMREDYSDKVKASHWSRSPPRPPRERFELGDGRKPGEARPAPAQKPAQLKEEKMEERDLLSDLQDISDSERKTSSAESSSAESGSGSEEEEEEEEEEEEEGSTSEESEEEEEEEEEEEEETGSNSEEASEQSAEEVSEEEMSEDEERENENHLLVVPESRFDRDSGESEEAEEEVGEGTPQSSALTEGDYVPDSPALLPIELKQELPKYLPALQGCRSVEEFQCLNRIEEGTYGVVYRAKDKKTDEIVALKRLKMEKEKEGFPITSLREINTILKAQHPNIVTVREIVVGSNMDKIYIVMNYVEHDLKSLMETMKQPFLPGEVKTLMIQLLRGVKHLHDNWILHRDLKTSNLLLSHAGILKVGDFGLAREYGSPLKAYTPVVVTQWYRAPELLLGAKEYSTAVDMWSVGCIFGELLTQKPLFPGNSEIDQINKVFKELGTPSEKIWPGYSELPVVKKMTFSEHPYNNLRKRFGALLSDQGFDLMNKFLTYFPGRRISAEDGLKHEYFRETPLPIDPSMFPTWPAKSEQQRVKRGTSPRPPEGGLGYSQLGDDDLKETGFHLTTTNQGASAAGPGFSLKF
# CDK5 (human), sequence (Q00535 whole entry, looked up): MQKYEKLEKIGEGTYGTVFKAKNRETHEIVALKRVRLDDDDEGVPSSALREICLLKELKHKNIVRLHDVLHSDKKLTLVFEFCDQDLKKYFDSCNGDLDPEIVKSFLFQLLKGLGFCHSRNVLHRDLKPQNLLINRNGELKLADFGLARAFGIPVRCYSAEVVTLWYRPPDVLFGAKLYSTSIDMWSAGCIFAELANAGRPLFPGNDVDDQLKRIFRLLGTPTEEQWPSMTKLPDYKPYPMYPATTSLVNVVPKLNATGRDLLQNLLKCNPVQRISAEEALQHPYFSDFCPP
# CDK14 (human), sequence (O94921 whole entry, looked up): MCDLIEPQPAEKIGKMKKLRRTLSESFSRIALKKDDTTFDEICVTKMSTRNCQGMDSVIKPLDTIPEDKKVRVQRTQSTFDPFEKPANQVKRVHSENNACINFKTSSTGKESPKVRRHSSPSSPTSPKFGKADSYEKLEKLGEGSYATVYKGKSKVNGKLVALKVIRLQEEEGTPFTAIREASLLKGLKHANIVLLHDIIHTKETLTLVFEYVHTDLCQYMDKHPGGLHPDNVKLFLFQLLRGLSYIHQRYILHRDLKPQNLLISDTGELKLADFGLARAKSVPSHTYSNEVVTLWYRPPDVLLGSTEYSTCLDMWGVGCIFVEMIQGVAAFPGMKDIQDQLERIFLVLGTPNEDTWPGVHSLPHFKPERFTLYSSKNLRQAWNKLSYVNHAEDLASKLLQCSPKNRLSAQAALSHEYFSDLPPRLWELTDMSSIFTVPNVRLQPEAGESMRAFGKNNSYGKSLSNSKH
structure (smiles),measurement,setting,value
CCN1CCN(Cc2ccc(NC(=O)c3ccc(C)c(Oc4ccnc5[nH]ccc45)c3)cc2C(F)(F)F)CC1,"kinase still bound, per cent of control",SRC (human),0.2%
same,"kinase still bound, per cent of control",ERBB4 (human),28%
same,"kinase still bound, per cent of control",BLK (human),0.45%
same,"kinase still bound, per cent of control",ALK (human),0.55%
same,"kinase still bound, per cent of control",STK38L (human),6.8%
same,"kinase still bound, per cent of control",CSF1R (human),0%
same,"kinase still bound, per cent of control",[1],0.35%
same,residual activity,CDK14 (human),0.4%
same,"kinase still bound, per cent of control",[2],0.05%
same,"kinase still bound, per cent of control",[3],0%
same,residual activity,CDK8 (human),3.9%
same,"kinase still bound, per cent of control",TNK1 (human),0.35%
same,"kinase still bound, per cent of control",FLT4 (human),0.2%
same,"kinase still bound, per cent of control",[4],0.7%
same,"kinase still bound, per cent of control",[5],1.2%
same,"kinase still bound, per cent of control",TIE1 (human),0.95%
same,"kinase still bound, per cent of control",[6],16%
same,"kinase still bound, per cent of control",FLT1 (human),1.6%
same,residual activity,PRKACB (human),14%
same,"kinase still bound, per cent of control",MAPK12 (human),0%
same,"kinase still bound, per cent of control",[7],0.1%
same,"kinase still bound, per cent of control",MYLK2 (human),8.4%
same,"kinase still bound, per cent of control",[8],0%
same,"kinase still bound, per cent of control",LYN (human),0.75%
same,"kinase still bound, per cent of control",[9],2.4%
same,residual activity,CDK5 (human),19%
same,"kinase still bound, per cent of control",ANKK1 (human),23%
same,"kinase still bound, per cent of control",EGFR (human),5.6%
same,residual activity,CDC2L2 (human),0.05%
same,"kinase still bound, per cent of control",MYO3B (human),4.8%
